IC50 and inhibition data for 22 compounds are collected here from patent publication US20120178766A1, “FUROPYRIMIDINEDIONE DERIVATIVES AS TRPAI MODULATORS” (priority 2009, published 2012).

By pIC50 is commonly meant the negative decadic logarithm of the IC50, by convention in mol/L. As usually defined, the inhibition is the share of the control response that was lost under treatment.

SMILES strings stand for the structures. pIC50: −log10 of the molar value.

The target in one experiment is T1, human TRPA1 (Homo sapiens, UniProt O75762).
T1 construct: expressed in transfected cells; host or cells: CHO cells (G-418 selection)
T1 sequence (O75762 whole entry): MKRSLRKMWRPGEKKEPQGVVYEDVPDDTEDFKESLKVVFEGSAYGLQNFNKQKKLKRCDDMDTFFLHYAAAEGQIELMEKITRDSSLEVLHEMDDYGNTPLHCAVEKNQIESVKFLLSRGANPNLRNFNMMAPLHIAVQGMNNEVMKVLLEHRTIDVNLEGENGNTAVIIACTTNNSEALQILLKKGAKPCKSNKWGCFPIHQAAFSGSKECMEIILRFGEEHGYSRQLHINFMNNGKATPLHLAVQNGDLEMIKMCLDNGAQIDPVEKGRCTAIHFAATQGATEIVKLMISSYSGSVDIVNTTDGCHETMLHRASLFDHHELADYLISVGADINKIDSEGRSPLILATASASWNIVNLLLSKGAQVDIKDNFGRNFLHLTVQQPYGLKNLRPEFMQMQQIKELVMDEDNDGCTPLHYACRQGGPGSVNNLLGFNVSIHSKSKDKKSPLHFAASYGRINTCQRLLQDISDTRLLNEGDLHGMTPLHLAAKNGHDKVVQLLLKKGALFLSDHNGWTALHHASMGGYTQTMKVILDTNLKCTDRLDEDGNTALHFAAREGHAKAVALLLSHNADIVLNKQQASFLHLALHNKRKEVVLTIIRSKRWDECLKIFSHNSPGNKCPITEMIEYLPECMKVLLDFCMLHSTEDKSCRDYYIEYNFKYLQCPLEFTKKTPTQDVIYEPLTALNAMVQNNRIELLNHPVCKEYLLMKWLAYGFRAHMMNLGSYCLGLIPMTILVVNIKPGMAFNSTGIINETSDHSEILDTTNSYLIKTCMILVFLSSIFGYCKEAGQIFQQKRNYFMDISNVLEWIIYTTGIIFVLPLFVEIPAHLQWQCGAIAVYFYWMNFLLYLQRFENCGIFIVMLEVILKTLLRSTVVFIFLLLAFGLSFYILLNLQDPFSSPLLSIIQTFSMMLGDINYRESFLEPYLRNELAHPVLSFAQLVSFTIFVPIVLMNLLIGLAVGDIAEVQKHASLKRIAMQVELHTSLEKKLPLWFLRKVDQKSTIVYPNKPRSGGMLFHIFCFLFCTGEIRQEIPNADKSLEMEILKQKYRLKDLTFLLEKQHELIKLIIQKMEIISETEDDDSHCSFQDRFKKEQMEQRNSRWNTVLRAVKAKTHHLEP
As to the kind of experiment: 45Calcium uptake assay: inhibition of AITC induced cellular uptake of radioactive calcium, human TRPA1 expressing CHO cells. It counts as cell-based. The conditions noted are these: AITC 30 μM. In short, it runs like this: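 CHO cells expressing TRPA1 were preincubated 10 min with compound (0.5% DMSO final), then given AITC (30 μM human, 10 μM rat) plus 5 μCi/ml 45Ca2+ for 3 min. Lysate radioactivity measured by scintillation; IC50 obtained by nonlinear regression of % maximal response without antagonist.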

For a further experiment, the target named is T2, rat TRPA1 (Rattus norvegicus, UniProt Q6RI86).
T2 construct: expressed in transfected cells; host or cells: CHO cells (Zeocin selection)
T2 sequence (Q6RI86 whole entry): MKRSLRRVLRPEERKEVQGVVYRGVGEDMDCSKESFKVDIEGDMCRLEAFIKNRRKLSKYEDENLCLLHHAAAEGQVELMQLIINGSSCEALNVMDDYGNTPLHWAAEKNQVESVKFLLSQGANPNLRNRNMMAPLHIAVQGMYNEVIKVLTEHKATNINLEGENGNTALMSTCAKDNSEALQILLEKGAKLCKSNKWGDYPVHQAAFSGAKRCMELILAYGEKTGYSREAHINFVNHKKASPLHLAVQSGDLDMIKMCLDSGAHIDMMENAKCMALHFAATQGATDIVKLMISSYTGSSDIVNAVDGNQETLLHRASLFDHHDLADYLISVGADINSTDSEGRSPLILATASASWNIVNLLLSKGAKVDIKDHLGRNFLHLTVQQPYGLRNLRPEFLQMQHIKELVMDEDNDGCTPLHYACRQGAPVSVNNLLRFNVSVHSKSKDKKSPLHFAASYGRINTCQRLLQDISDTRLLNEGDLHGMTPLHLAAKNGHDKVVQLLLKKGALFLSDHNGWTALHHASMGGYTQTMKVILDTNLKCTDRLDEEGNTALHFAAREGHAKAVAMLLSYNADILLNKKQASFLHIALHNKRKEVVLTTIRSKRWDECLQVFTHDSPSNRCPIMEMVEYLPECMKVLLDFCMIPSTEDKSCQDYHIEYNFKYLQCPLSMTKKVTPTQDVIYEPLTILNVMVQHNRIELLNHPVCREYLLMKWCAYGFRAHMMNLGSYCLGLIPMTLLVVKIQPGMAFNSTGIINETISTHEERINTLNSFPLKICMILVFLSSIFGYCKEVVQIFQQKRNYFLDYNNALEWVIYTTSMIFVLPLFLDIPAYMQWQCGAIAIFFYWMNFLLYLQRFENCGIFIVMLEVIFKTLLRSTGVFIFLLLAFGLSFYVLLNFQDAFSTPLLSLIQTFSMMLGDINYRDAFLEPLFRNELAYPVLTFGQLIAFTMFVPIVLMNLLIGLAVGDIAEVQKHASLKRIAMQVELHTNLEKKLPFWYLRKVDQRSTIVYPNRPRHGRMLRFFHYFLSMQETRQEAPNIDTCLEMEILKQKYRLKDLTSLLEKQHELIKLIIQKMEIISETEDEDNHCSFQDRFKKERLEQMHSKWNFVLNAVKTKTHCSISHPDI
Put plainly: 45Calcium uptake assay: inhibition of AITC induced cellular uptake of radioactive calcium, rat TRPA1 expressing CHO cells. The conditions noted are these: AITC 10 μM; for pIC50: class symbols; for inhibition at 10 µM: 10.0 μM compound, read-out: rat TRPA1 Percentage inhibition at 10.0 μM; for inhibition at 1 µM: read-out: rat TRPA1 Percentage inhibition. Format: cell-based. In short, it runs like this: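 CHO cells expressing rat or human TRPA1 were pre-treated with compound for 10 min, then given AITC (30 μM human, 10 μM rat) plus 5 μCi/ml 45Ca2+ for 3 min; final DMSO 0.5%. Lysate radioactivity was counted by scintillation. IC50 came from nonlinear regression of concentration-response curves as % of maximal response.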

Regarding `Cc1oc2c(c1CC(=O)Nc1nc(-c3ccc(C(F)(F)F)c(F)c3)cs1)c(=O)n(C)c(=O)n2C` [Example 59, N1-{4-[3-Fluoro-4-(trifluoromethyl)phenyl]-1,3-thiazol-2-yl}-2-(1,3,6-trimethyl-2,4-dioxo-1,2,3,4-tetrahydrofuro[2,3-d]pyrimidin-5-yl)acetamide], the pIC50 on human TRPA1 (class symbols) is more than 7.30; at rat TRPA1, 7.00 to 7.30.
Consider `Cc1oc2c(c1CC(=O)Nc1nc(-c3ccc(C(F)(F)F)cc3F)cs1)c(=O)n(C)c(=O)n2C` [Example 60, N1-{-4-(2-Fluoro-4-(trifluoromethyl)phenyl]-1,3-thiazol-2-yl}-2-(1,3,6-trimethyl-2,4-dioxo-1,2,3,4-tetrahydrofuro[2,3-d]pyrimidin-5-yl)acetamide], for which the pIC50 on human TRPA1 (class symbols) is more than 7.30. Also, at rat TRPA1, the inhibition at 10 µM worked out at 99.7%, the inhibition at 1 µM is 99.3% and the pIC50 is 7.00 to 7.30.
Turning to `Cc1oc2c(c1CC(=O)Nc1nc(-c3cccc(C(F)(F)F)c3F)cs1)c(=O)n(C)c(=O)n2C` [Example 61, N1-{4-[2-Fluoro-3-(trifluoromethyl)phenyl]-1,3-thiazol-2-yl}-2-(1,3,6-trimethyl-2,4-dioxo-1,2,3,4-tetrahydrofuro[2,3-d]pyrimidin-5-yl)acetamide], the pIC50 at human TRPA1 (class symbols) and at rat TRPA1 was more than 7.30 throughout.
`Cc1oc2c(c1CC(=O)Nc1nc(-c3cc(F)cc(C(F)(F)F)c3)cs1)c(=O)n(C)c(=O)n2C` [Example 62, N1-{4-[3-Fluoro-5-(trifluoromethyl)phenyl]-1,3-thiazol-2-yl}-2-(1,3,6-trimethyl-2,4-dioxo-1,2,3,4-tetrahydrofuro[2,3-d]pyrimidin-5-yl)acetamide]: the pIC50 on human TRPA1 (class symbols) and at rat TRPA1 was more than 7.30 in each case.
As for `Cc1oc2c(c1CC(=O)Nc1nc(-c3cc(C(F)(F)F)ccc3F)cs1)c(=O)n(C)c(=O)n2C` [Example 63, N1-{4-[2-Fluoro-5-(trifluoromethyl)phenyl]-1,3-thiazol-2-yl}-2-(1,3,6-trimethyl-2,4-dioxo-1,2,3,4-tetrahydrofuro[2,3-d]pyrimidin-5-yl)acetamide], the pIC50 on human TRPA1 (class symbols) is 7.00 to 7.30. Besides, on rat TRPA1, the inhibition at 10 µM is 99.8% and the inhibition at 1 µM was 97.6%.
For `Cc1oc2c(c1CC(=O)Nc1nc(-c3ccc(Cl)c(C(F)(F)F)c3)cs1)c(=O)n(C)c(=O)n2C` [Example 64, N1-{4-[4-Chloro-3-(trifluoromethyl)phenyl]-1,3-thiazol-2-yl}-2-(1,3,6-trimethyl-2,4-dioxo-1,2,3,4-tetrahydrofuro[2,3-d]pyrimidin-5-yl)acetamide], the pIC50 on human TRPA1 (class symbols) and at rat TRPA1 was more than 7.30 each time.
Regarding `Cc1oc2c(c1CC(=O)Nc1nc(-c3cc(Cl)cc(C(F)(F)F)c3)cs1)c(=O)n(C)c(=O)n2C` [Example 65, N1-{4-[3-Chloro-5-(trifluoromethyl)phenyl]-1,3-thiazol-2-yl}-2-(1,3,6-trimethyl-2,4-dioxo-1,2,3,4-tetrahydrofuro[2,3-d]pyrimidin-5-yl)acetamide], the pIC50 on human TRPA1 (class symbols) was more than 7.30. In addition, on rat TRPA1, the inhibition at 10 µM amounted to 99.8%, the inhibition at 1 µM was 99.8% and the pIC50 was 7.00 to 7.30.
On to `Cc1oc2c(c1CC(=O)Nc1nc(-c3ccc(C(F)(F)F)c(Cl)c3)cs1)c(=O)n(C)c(=O)n2C` [Example 66, N1-{4-[3-Chloro-4-(trifluoromethyl)phenyl]-1,3-thiazol-2-yl}-2-(1,3,6-trimethyl-2,4-dioxo-1,2,3,4-tetrahydrofuro[2,3-d]pyrimidin-5-yl)acetamide], for which the inhibition at 1 µM at human TRPA1 (1.0 μM compound, read-out: human TRPA1 Percentage inhibition at 1.0 μM) is 99.4%; on rat TRPA1 it was 99.8%. The inhibition at 10 µM on human TRPA1 (10.0 μM compound, read-out: human TRPA1 Percentage inhibition at 10.0 μM) came to 99.8%; on rat TRPA1, 98.5%.
Consider `Cc1oc2c(c1CC(=O)Nc1nc(-c3ccc(OC(F)(F)F)c(F)c3)cs1)c(=O)n(C)c(=O)n2C` [Example 67, N1-{4-[3-Fluoro-4-(trifluoromethoxy)phenyl]-1,3-thiazol-2-yl}-2-(1,3,6-trimethyl-2,4-dioxo-1,2,3,4-tetrahydrofuro[2,3-d]pyrimidin-5-yl)acetamide], for which the negative logarithm of the IC50 (pIC50) on human TRPA1 (class symbols) and on rat TRPA1 was more than 7.30 in each case.
In the case of `Cc1oc2c(c1CC(=O)Nc1nc(-c3ccc(F)c(OC(F)(F)F)c3)cs1)c(=O)n(C)c(=O)n2C` [Example 68, N1-{4-[4-Fluoro-3-(trifluoromethoxy)phenyl]-1,3-thiazol-2-yl}-2-(1,3,6-trimethyl-2,4-dioxo-1,2,3,4-tetrahydrofuro[2,3-d]pyrimidin-5-yl)acetamide], the negative logarithm of the IC50 (pIC50) on human TRPA1 (class symbols) and on rat TRPA1 was more than 7.30 each time.
As for `Cc1oc2c(c1CC(=O)Nc1nc(-c3ccc(Cl)c(OC(F)(F)F)c3)cs1)c(=O)n(C)c(=O)n2C` [Example 69, N1-{4-[4-Chloro-3-(trifluoromethoxy)phenyl]-1,3-thiazol-2-yl}-2-(1,3,6-trimethyl-2,4-dioxo-1,2,3,4-tetrahydrofuro[2,3-d]pyrimidin-5-yl)acetamide], the pIC50 at human TRPA1 (class symbols) and at rat TRPA1 was more than 7.30 throughout.
As for `Cc1oc2c(c1CC(=O)Nc1nc(-c3ccc(OC(F)(F)F)c(Cl)c3)cs1)c(=O)n(C)c(=O)n2C` [Example 70, N1-{4-[3-Chloro-4-(trifluoromethoxy)phenyl]-1,3-thiazol-2-yl}-2-(1,3,6-trimethyl-2,4-dioxo-1,2,3,4-tetrahydrofuro[2,3-d]pyrimidin-5-yl)acetamide], the negative-log IC50 (pIC50) at human TRPA1 (class symbols) and at rat TRPA1 was more than 7.30 throughout.
Take `Cc1oc2c(c1CC(=O)Nc1nc(-c3cc(Cl)cc(OC(F)(F)F)c3)cs1)c(=O)n(C)c(=O)n2C` [Example 71]: the pIC50 is more than 7.30 at human TRPA1 (class symbols) and 7.00 to 7.30 on rat TRPA1.
For `Cc1oc2c(c1CC(=O)Nc1nc(-c3ccc(OC(F)F)c(Cl)c3)cs1)c(=O)n(C)c(=O)n2C` [Example 72, N1-{4-[3-Chloro-4-(difluoromethoxy)phenyl]-1,3-thiazol-2-yl}-2-(1,3,6-trimethyl-2,4-dioxo-1,2,3,4-tetrahydrofuro[2,3-d]pyrimidin-5-yl)acetamide], the pIC50 on human TRPA1 (class symbols) is more than 7.30. For the same compound, at rat TRPA1, the inhibition at 10 µM amounted to 100%, the inhibition at 1 µM came to 100% and the pIC50 is less than 7.00.
In the case of `Cc1oc2c(c1CC(=O)Nc1nc(-c3ccc(OCC(F)(F)F)c(F)c3)cs1)c(=O)n(C)c(=O)n2C` [Example 73, N1-{4-[3-Fluoro-4-(2,2,2-trifluoroethoxy)phenyl]-1,3-thiazol-2-yl}-2-(1,3,6-trimethyl-2,4-dioxo-1,2,3,4-tetrahydrofuro[2,3-d]pyrimidin-5-yl)acetamide], at human TRPA1 (class symbols), the pIC50 is more than 7.30. Further, on rat TRPA1, the inhibition at 10 µM was determined as 100% and the inhibition at 1 µM stood at 100%.
Take `Cc1oc2c(c1CC(=O)Nc1nc(-c3ccc(OCC(F)(F)F)c(Cl)c3)cs1)c(=O)n(C)c(=O)n2C` [Example 74, N1-{4-[3-Chloro-4-(2,2,2-trifluoroethoxy)phenyl]-1,3-thiazol-2-yl}-2-(1,3,6-trimethyl-2,4-dioxo-1,2,3,4-tetrahydrofuro[2,3-d]pyrimidin-5-yl)acetamide]: on human TRPA1 (class symbols), the pIC50 is more than 7.30. Moreover, at rat TRPA1, the inhibition at 10 µM amounted to 100%, the inhibition at 1 µM is 100% and the negative logarithm of the IC50 (pIC50) was more than 7.30.
For the compound `Cc1oc2c(c1CC(=O)Nc1nc(-c3cc(F)c(F)cc3F)cs1)c(=O)n(C)c(=O)n2C` [Example 75, N1-[4-(2,4,5-Trifluorophenyl)-1,3-thiazol-2-yl]-2-(1,3,6-trimethyl-2,4-dioxo-1,2,3,4-tetrahydrofuro[2,3-d]pyrimidin-5-yl)acetamide], the pIC50 at human TRPA1 (numeric values) was 7.73; on rat TRPA1, 7.00 to 7.30.
The matching figures for `Cc1oc2c(c1CC(=O)Nc1nc(-c3cc(F)c(F)c(F)c3)cs1)c(=O)n(C)c(=O)n2C` [Example 76, N1-[4-(3,4,5-Trifluorophenyl)-1,3-thiazol-2-yl]-2-(1,3,6-trimethyl-2,4-dioxo-1,2,3,4-tetrahydrofuro[2,3-d]pyrimidin-5-yl)acetamide]: 8.12 and 7.00 to 7.30.
Consider `Cc1oc2c(c1CC(=O)Nc1nc(-c3ccc(F)c(F)c3F)cs1)c(=O)n(C)c(=O)n2C` [Example 77, N1-[4-(2,3,4-Trifluorophenyl)-1,3-thiazol-2-yl]-2-(1,3,6-trimethyl-2,4-dioxo-1,2,3,4-tetrahydrofuro[2,3-d]pyrimidin-5-yl)acetamide], for which, on human TRPA1 (numeric values), the pIC50 was 7.72. At rat TRPA1, the inhibition at 10 µM was determined as 98.5% and the inhibition at 1 µM was 99.2%.
Regarding `Cc1oc2c(c1CC(=O)Nc1nc(-c3ccc(F)c(Cl)c3F)cs1)c(=O)n(C)c(=O)n2C` [Example 78, N1-[4-(3-Chloro-2,4-difluorophenyl)-1,3-thiazol-2-yl]-2-(1,3,6-trimethyl-2,4-dioxo-1,2,3,4-tetrahydrofuro[2,3-d]pyrimidin-5-yl)acetamide], the pIC50 on human TRPA1 (numeric values) was 7.46. In addition, on rat TRPA1, the inhibition at 10 µM was found to be 94.8% and the inhibition at 1 µM amounted to 94.5%.
For the compound `Cc1oc2c(c1CC(=O)Nc1nc(-c3cc(F)c(OCC(C)(C)C)c(F)c3)cs1)c(=O)n(C)c(=O)n2C` [Example 80], the results for the pIC50 at human TRPA1 (numeric values) and at rat TRPA1 were 8.44 and more than 7.30, respectively.
`Cc1oc2c(c1CC(=O)Nc1nc(-c3cc(F)c(OCC(C)C)c(F)c3)cs1)c(=O)n(C)c(=O)n2C` [Example 81, N1-[4-(3,5-Difluoro-4-isobutoxyphenyl)-1,3-thiazol-2-yl]-2-(1,3,6-trimethyl-2,4-dioxo-1,2,3,4-tetrahydrofuro[2,3-d]pyrimidin-5-yl)acetamide]: on human TRPA1 (numeric values), the pIC50 is 8.33. Further, at rat TRPA1, the inhibition at 10 µM worked out at 99.2%, the inhibition at 1 µM is 100% and the pIC50 was 7.00 to 7.30.
